Measurements as given in patent US11400269B2, “Using alternating electric fields to increase permeability of the blood brain barrier” (Novocure GmbH, priority 2018, dated 2022).

Tests used:
rat brain (BBB) [1] = assay: Evans Blue accumulation in rat brain after alternating electric fields; type: in vivo
Excerpt: A set of in vivo experiments on rats was also run to quantify the increase in vessel permeability caused by exposure to the alternating electric fields. These experiments used Evans Blue (EB) dye, which is an azo dye that has a very high affinity for serum albumin (molecule size ˜69 kDa). Because of its large molecule size, serum albumin will ordinarily not be able to get past the BBB.
This was accomplished by shaving each rat's head, positioning a first pair of capacitively coupled electrodes on the top and bottom of the rat's head, and positioning a second pair of capacitively coupled electrodes on the left and right sides of the rat's head. A 100 kHz AC voltage was then applied between the top and bottom electrodes for 1 second, followed by a 100 kHz AC voltage applied between the right and left electrodes for 1 second, in a repeating sequence.
Under the conditions indicated in Table 1 and for the times indicated on Table 1, EB was injected intravenously into the tail vein under anesthesia (Once injected, EB immediately binds to Albumin), and the EB was allowed to circulate for 2 hours in all cases. The following steps were then performed: (a) intracardiac perfusion with saline; (b) brains are sliced in four pieces with a brain slicer; (c) pieces were photographed to localize staining and weighted; (d) EB extraction after tissue homogenization with TCA 50% (1:3) and centrifuge and (e) EB quantification at 610 nm. Results are given as μg EB per g tissue.
During the experiment, two animals from group 2 and one animal from group 4 were excluded (disrupted treatment, failure to inject EB into the tail vein). There were no differences between the animals treated with alternating electric fields (groups 1 and 2) and therefore these animals were grouped together. Similarly, there were no differences between sham heat and control animals (groups 3 and 4) and therefore these animals were grouped together.
EB accumulation in these four specific sections was then measured. In addition, a computer simulation was performed to determine the field strength in each of these four sections. […]

rat brain (BBB) [2] = assay: DCE-MRI contrast agent accumulation in rat brain; type: in vivo
Experimental: Yet another set of in vivo experiments was performed using Dynamic Contrast Enhanced MRI (DCE-MRI) with intravenous injection of Gadolinium contrast agent (Gd-DTPA, Magnetol, MW 547). In these experiments, test rats were treated with 100 kHz alternating electric fields for 72 h, and control rats were not treated with alternating electric fields for the same period of time. After this 72 h period, the alternating electric field was turned off, the rats were anesthetized, and a series of 60 T1w MRI scans (each of the scans having a duration of 28 seconds) was acquired. The gadolinium contrast agent was injected into the rat's tail vein during the 7th of these 60 scans.
The image analysis for each rat included (1) determining a baseline for each voxel by calculating the mean of the first six T1w MRI scans for each voxel (i.e., the scans prior to the injection of the gadolinium); (2) computing voxel by voxel, the percent signal change (i.e., gadolinium accumulation) over time relative to the baseline; (3) segmenting the brain into anterior, middle, and posterior segments; (4) generating for each of the three segments the mean percent signal change with respect to the baseline over all the voxels in the respective segment and then (5) averaging 4 consecutive time points (i.e. 4 scans) together. Finally, the data from all of the rats within any given group were averaged together. […]

[3] = 100 kHz fields 72 h vs sham heat/control, EB i.v., circulated 2 hours, measured as μg EB per g tissue, FIG. 5

| average EB accumulation in the rat brain, averaged over all four sections 1-4 (rat brain (BBB) [1]; 100 kHz fields 72 hours vs sham heat/control, p<0.05, FIG. 6) | EB accumulation, sections 1, 2 (frontal cerebrum) (rat brain (BBB) [1]; [3]) | Compound | EB accumulation, more posterior sections (3, 4) (rat brain (BBB) [1]; [3]) | contrast agent accumulation in the brain tissue (percent signal change) (rat brain (BBB) [2]; 100 kHz fields 72 h (n=6) vs control rats (n=3), i.v., FIG. 7) | contrast agent accumulation in the brain tissue (percent signal change) after recovery (rat brain (BBB) [2]; 72 hours fields followed by 96 hours without fields (n=7) vs control+96 h (n=3)) |
| --- | --- | --- | --- | --- | --- |
| higher accumulation | statistically significant increase | Cc1cc(-c2ccc(/N=N/c3ccc4c(S(=O)(=O)O)cc(S(=O)(=O)O)c(N)c4c3O)c(C)c2)ccc1/N=N/c1ccc2c(S(=O)(=O)O)cc(S(=O)(=O)O)c(N)c2c1O [EB, Evans Blue] | smaller increase (that was not statistically significant) | – | – |
| – | – | O=C([O-])CN(CCN(CC(=O)[O-])CC(=O)O)CCN(CC(=O)[O-])CC(=O)O.[Gd+3] [contrast agent, Gd-DTPA] | – | significantly higher | not significantly different |
